Experimental data from ChEMBL document CHEMBL1201862, “PubChem BioAssay data set” (2004).
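Five compound concentrations were applied to cells in 96-well plates for 48 hours; endpoints were derived by simple linear interpolation of the resulting dose-response curve. GI50: concentration for 50% inhibition of growth.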 Calls of active or inactive are those of the source. No stated cut-off is given here; in the data, active = GI50 up to about 1.1 µM and inactive = higher.

Tests used:
Assay in all cases: DTP human tumour cell line panel, 48 h
SK-MEL-2 = system: SK-MEL-2
UO-31 = system: UO-31
CAKI-1 = system: CAKI-1
SNB-75 = system: SNB-75
TK-10 = system: TK-10
UACC-62 = system: UACC-62
U-251 = system: U-251
RPMI-8226 = system: RPMI-8226
HCT-116 = system: HCT-116
BT-549 = system: BT-549
Hs-578T = system: Hs-578T
MDA-MB-435 = system: MDA-MB-435
IGROV-1 = system: IGROV-1
OVCAR-8 = system: OVCAR-8
SNB-19 = system: SNB-19
MDA-MB-231 = system: MDA-MB-231
UACC-257 = system: UACC-257
SK-MEL-28 = system: SK-MEL-28
Malme-3M = system: Malme-3M

Measured: GI50

COc1cccc(/N=N/N2CCCC2)c1
inactive: SK-MEL-2 > 100 µM | UO-31 > 100 µM | CAKI-1 > 100 µM | SNB-75 > 100 µM | TK-10 > 100 µM | UACC-62 39.5 µM | U-251 > 100 µM | RPMI-8226 53.7 µM | HCT-116 > 100 µM | BT-549 > 100 µM | Hs-578T > 100 µM | MDA-MB-435 59.2 µM | IGROV-1 > 100 µM | OVCAR-8 > 100 µM | SNB-19 > 100 µM | MDA-MB-231 > 100 µM | UACC-257 > 100 µM

CC1=C(C(=O)NNC(=O)c2ccccc2)CC(C(=O)NNC(=O)c2ccccc2)=C(C)N1
inactive: SK-MEL-2 > 100 µM | UO-31 > 100 µM | SK-MEL-28 > 100 µM | CAKI-1 > 100 µM | TK-10 > 100 µM | UACC-62 > 100 µM | U-251 > 100 µM | RPMI-8226 > 100 µM | HCT-116 > 100 µM | BT-549 > 100 µM | Hs-578T > 100 µM | MDA-MB-435 > 100 µM | IGROV-1 > 100 µM | OVCAR-8 > 100 µM | SNB-19 > 100 µM | MDA-MB-231 > 100 µM | UACC-257 > 100 µM

CC(C)CC1c2[nH]c3ccccc3c2C[C@H]2C(=O)NC(CCCCNC(=O)OC(C)(C)C)C(=O)N12 (stereo not given in full)
inactive: SK-MEL-2 21.6 µM | UO-31 38.1 µM | SK-MEL-28 65.6 µM | CAKI-1 37.3 µM | TK-10 31.3 µM | Malme-3M 31.6 µM | UACC-62 27 µM | U-251 24.7 µM | RPMI-8226 18.7 µM | HCT-116 30 µM | BT-549 25.2 µM | Hs-578T 2.7 µM | MDA-MB-435 33 µM | IGROV-1 37.1 µM | OVCAR-8 34.2 µM | SNB-19 47.1 µM | MDA-MB-231 17 µM | UACC-257 44.8 µM

CC(=O)OC1CN2CCC1CC2 (stereo not given) [ACECLIDINE]
inactive: UO-31 > 100 µM | SK-MEL-28 > 100 µM | CAKI-1 > 100 µM | TK-10 > 100 µM | Malme-3M > 100 µM | UACC-62 > 100 µM | U-251 > 100 µM | RPMI-8226 > 100 µM | HCT-116 > 100 µM | BT-549 > 100 µM | Hs-578T > 100 µM | MDA-MB-435 > 100 µM | IGROV-1 > 100 µM | OVCAR-8 > 100 µM | SNB-19 > 100 µM | MDA-MB-231 > 100 µM | UACC-257 > 100 µM

O=C(O)Cc1c(-c2ccc([N+](=O)[O-])cc2)c(=O)oc2cc(O)ccc12
inactive: SK-MEL-2 21.2 µM | UO-31 23.4 µM | SK-MEL-28 38 µM | CAKI-1 > 10 µM | TK-10 33.2 µM | Malme-3M 24.1 µM | UACC-62 38.9 µM | U-251 15.7 µM | RPMI-8226 19.9 µM | HCT-116 26.1 µM | BT-549 23.8 µM | Hs-578T 25.9 µM | MDA-MB-435 28.8 µM | IGROV-1 61.4 µM | OVCAR-8 23.2 µM | SNB-19 25.1 µM | MDA-MB-231 29.4 µM | UACC-257 20.4 µM

COc1ccc(-c2c(N)n(-c3cc(OC)cc(OC)c3)c(=O)c3cc([N+](=O)[O-])ccc23)cc1
inactive: SK-MEL-2 > 100 µM | UO-31 > 23.3 µM | SK-MEL-28 > 100 µM | CAKI-1 31.4 µM | TK-10 > 26 µM | Malme-3M > 100 µM | UACC-62 99.3 µM | U-251 > 100 µM | RPMI-8226 2.76 µM | HCT-116 21.9 µM | BT-549 19.2 µM | Hs-578T 6.01 µM | MDA-MB-435 20.4 µM | IGROV-1 > 52.6 µM | OVCAR-8 > 100 µM | SNB-19 28.3 µM | MDA-MB-231 28.6 µM | UACC-257 > 90.4 µM

OC1(c2ccccc2)c2ccccc2N=C2NCCN21 (stereo not given)
inactive: SK-MEL-2 > 100 µM | UO-31 59.2 µM | SK-MEL-28 89.3 µM | CAKI-1 45.4 µM | SNB-75 91.4 µM | TK-10 37.4 µM | UACC-62 51.4 µM | U-251 91.8 µM | RPMI-8226 11.1 µM | HCT-116 83.9 µM | BT-549 > 100 µM | Hs-578T > 100 µM | MDA-MB-435 > 100 µM | IGROV-1 > 100 µM | OVCAR-8 > 100 µM | SNB-19 > 100 µM | MDA-MB-231 > 100 µM | UACC-257 31.1 µM

CC1=NN(c2nc(N)nc(COCc3nc(N)nc(N4N=C(C)CC4(C)C)n3)n2)C(C)(C)C1
inactive: SK-MEL-2 > 100 µM | UO-31 > 100 µM | SK-MEL-28 > 100 µM | CAKI-1 > 100 µM | SNB-75 > 100 µM | TK-10 > 100 µM | UACC-62 > 100 µM | U-251 > 100 µM | RPMI-8226 > 100 µM | HCT-116 > 100 µM | BT-549 > 100 µM | Hs-578T > 100 µM | MDA-MB-435 > 100 µM | IGROV-1 > 100 µM | OVCAR-8 > 100 µM | SNB-19 > 100 µM | MDA-MB-231 > 100 µM | UACC-257 > 100 µM

CC1=NN(C(=O)c2ccncc2)C(=O)C1
inactive: SK-MEL-2 > 100 µM | UO-31 > 100 µM | SK-MEL-28 > 100 µM | CAKI-1 > 100 µM | SNB-75 > 100 µM | TK-10 > 100 µM | Malme-3M > 100 µM | UACC-62 > 100 µM | U-251 > 100 µM | HCT-116 > 100 µM | BT-549 > 100 µM | Hs-578T > 100 µM | MDA-MB-435 > 100 µM | IGROV-1 > 100 µM | OVCAR-8 > 100 µM | SNB-19 > 100 µM | MDA-MB-231 32.2 µM | UACC-257 > 100 µM

COc1cc(NC(C)c2ccc3c(c2)OCCO3)cc(OC)c1OC (stereo not given)
inactive: SK-MEL-2 23.2 µM | UO-31 56.9 µM | SK-MEL-28 56.4 µM | CAKI-1 46 µM | TK-10 63 µM | Malme-3M 19.1 µM | UACC-62 29.9 µM | U-251 29.5 µM | RPMI-8226 23.9 µM | HCT-116 30.3 µM | BT-549 33 µM | Hs-578T 20.9 µM | MDA-MB-435 4.69 µM | IGROV-1 59.3 µM | OVCAR-8 47.3 µM | SNB-19 95.5 µM | MDA-MB-231 32.5 µM | UACC-257 28.7 µM

CCNC(=S)Nc1c(C#N)c2n(c1C(=O)OCC)CCCCC2
inactive: SK-MEL-2 > 100 µM | UO-31 > 100 µM | SK-MEL-28 > 100 µM | CAKI-1 > 100 µM | SNB-75 > 100 µM | TK-10 > 100 µM | UACC-62 > 100 µM | U-251 > 100 µM | RPMI-8226 71.3 µM | HCT-116 > 100 µM | BT-549 30.9 µM | Hs-578T 35.3 µM | MDA-MB-435 > 100 µM | IGROV-1 > 100 µM | OVCAR-8 > 100 µM | SNB-19 > 100 µM | MDA-MB-231 > 100 µM | UACC-257 > 100 µM
